Source: patent US20220142959A1, “LEUCINE, ACETYL LEUCINE, AND RELATED ANALOGS FOR TREATING DISEASE” (priority 2019, published 2022)

How the values were obtained:
TUNEL positive cells = experiment: TUNEL assay on brain sections after CCI induced TBI; format: in vivo; conditions: injured mice fed with NALL vs vehicle fed TBI mice
Experimental: Controlled cortical impact (CCI) induced TBI was performed in male C57BL6/J mice (20-25 g). Briefly, after a 10-mm midline incision was made over the skull, the skin and fascia were retracted, and a 4-mm craniotomy was made on the central aspect of the left parietal bone of mice under surgical anesthesia (2-3% isoflurane evaporated in a gas mixture containing 70% N20 and 30% 02). Moderate injury was induced in the exposed brain by a custom microprocessor-controlled and compressed air driven pneumatic impactor of 3.5 mm diameter tip with the impact velocity of 6 m/s and a deformation depth of 2 mm.
N-Acetyl-L-Leucine (“NAL” or “NALL”) was dissolved in ethanol to prepare a 50 mg/ml solution which was then diluted in water to give a 10 mg/ml solution. About 0.25 ml of the NAL solution (10 mg/ml) was orally administered in mice at a […] (2.5 mg NAL/25 g mouse) via oral gavage each day after CCI induced TBI for 4 days. Mice were also fed with NAL at 0.5 mg/kg chow powder chow mixed with diet gel for up to 7 days after injury.
The level of α-fodrin cleavage products in NALL treated, vehicle treated sham, and TBI mouse cortices were determined by Western blot analysis and using the TUNEL assay to assess whether NALL treatment decreases cortical cell death after TBI. […]

[1] = tested on: rat primary cortical neurons; experiment: U18666A-mediated impairment of lysosomal fusion in rat primary cortical neurons; format: cell-based; conditions: co-treated with U18666A (2 μg/mL) and compound 1 mM, 24 h
Experimental: FIG. 18. is a histogram of the ratio of LC3-II normalised to βIII tubulin (expressed as a percentage of untreated (n=1)) in rat primary cortical neurons that were treated with U18666A (2 μg/ml, 24 hr) in the absence or presence of ADLL, ALL, ADL, DLL, LL, DL, and LLE (1 mM, 24 hr).
FIG. 19 is histogram of the ratio of APP-CTFs-6 and -7 normalised to their respective CTFs in untreated cells (expressed as a percentage of untreated (n=1) in rat primary cortical neurons that were treated with U18666A (2 μg/ml, 24 hr) in the absence or presence of ADLL, ALL, ADL, DLL, LL, DL, and LLE (1 mM, 24 hr).
The efficacy of ADLL, ALL, ADL, DLL, LL, DL, and LLE in alleviating the U18666A-mediated impairment of autophagosome-lysosome fusion and endosomal lysosomal fusion was investigated. In this cell-based assay of impaired EAL flux, the reappearance of basal levels of APP CTFs-6 and -7, provided an indication of improved endosomal-lysosomal fusion.
Neurons were co-treated with U18666A (2 μg/mL) along with ADLL, ALL, ADL, DLL, LL, DL, and LLE (1 mM, 24 h).

LC3-II and APP-CTFs = experiment: EAL flux in NPC1 mice (cerebellum LC3-II and APP-CTFs); format: in vivo, mouse; conditions: treated 3 weeks
Description: FIG. 14 is a histogram of the ratio of LC3-II expression to βIII-tubulin in the cerebellum of mouse NPC1 brains at 9-12 weeks of age treated with ADLL, ALL, ADL, DLL, LL, DL, LLE, and miglustat (miglu.) for 3 weeks relative to untreated NPC1 cerebellum (n=4, mean±S.E.M).
FIG. 15 is a histogram of the ratio of APP-CTFs: full-length APP expression in the cerebellum of mouse NPC1 brains at 9-12 weeks of age treated with ADLL, ALL, ADL, DLL, LL, DL, LLE, and miglustat (miglu.) for 3 weeks relative to untreated NPC1 cerebellum (n=4, mean±S.E.M).
FIG. 16 is a histogram of the ratio of APP-CTF-6: full-length APP expression in the cerebellum of mouse NPC1 brains at 9-12 weeks of age treated with ADLL, ALL, ADL, DLL, LL, DL, and LLE for 3 weeks relative to untreated NPC1 cerebellum.
FIG. 17 is a histogram of the ratio of APP-CTF-7: full-length APP expression in the cerebellum of mouse NPC1 brains at 9-12 weeks of age treated with ADLL, ALL, ADL, DLL, LL, DL, and LLE for 3 weeks relative to untreated NPC1 cerebellum (n=4, mean±S.E.M).
The efficacy of ADLL, ALL, ADL, DLL, LL, DL, and LLE in alleviating the impairment of EAL flux in NPC1 mice was investigated. […] Without wishing to be bound by any particular theory, it is possible that ADL and LLE reduced autophagic vacuole (AV) build-up by inhibiting autophagosome formation, possibly through the activation mTORC1. […] Also, acetyl L-leucine (ALL), acetyl D-leucine (ADL) and L-leucine (LL) reduced CTF-7 expression, indicating some improvement in lysosomal proteolysis (FIG. 17).

With `CC(=O)N[C@@H](CC(C)C)C(=O)O` [ALL, acetyl-L-leucine] the “TUNEL positive cells in brain sections” value (TUNEL positive cells) was “Lower levels”, the “CTF-6 and -7 (endosomal-lysosomal fusion)” value [1] was “reappearance of basal amounts” and the LC3-II levels [1] was “lower than the basal levels”. The “CTF-7 expression / clearance” value (LC3-II and APP-CTFs) was “reduced”.
